53 compounds from patent publication US11603364B2, “Acyl hydrazone derivative compounds for treating disease” (Alterity Therapeutics Limited, priority 2020, dated 2023) can be followed below.

The subject of this assay is phospho-GSK-3β. Briefly: GSK 3b assay: Zn ionophore-enhanced phosphorylation of GSK-3β (AlphaScreen SureFire Phospho-GSK 3β (Ser9) kit) in SH-SY5Y cells. The conditions noted are these: test compound 2 μM + ZnCl2 5 μM, 2 h at 37° C. Format: cell-based, human. As to the method:
The phosphorylation of GSK-3β is enhanced when Zn is imported into a cell by a Zn ionophore. This property was measured for the compounds of the current invention and the data presented relative to the know Zn ionophore PBT2 using the following protocol.
The human neuroblastoma SH-SY5Y cells were obtained from Cell bank Australia (Catalogue number: 94030304). SH-SY5Y cell culture was maintained in DMEM/F12+15% FBS inside an incubator at 37° C. in the presence of 5% CO2. The cells were sub-cultured once a week and the media exchanged once during the week. Cells for the assay were plated at a density of 60,000 cells/well.
Stock solutions of the samples were prepared as a 5 mM stock in DMSO and a stock solution of 1 mM ZnCl2/3 mM Glutamic acid was prepared in water. Immediately before use the compounds were diluted 1:10 with water before being added to Locke's buffer in a treatment tube. Samples were subsequently treated with either distilled water or the ZnCl2/Glutamic acid solution to yield a treatment solution which has a final concentration of the test compound at 2 μM+/−ZnCl2 at 5 μM.
The culture media was aspirated from the wells and the media replaced with the treatment solution prepared above. In addition to the relative standard (PBT2+/−ZnCl2), control wells were also included consisting of +/−ZnCl2 at 5 μM with all treatments done in triplicate. The plate was incubated at 37° C. with the treatment solution for 2 h after which time the wells were aspirated and washed with sterile PBS.
Measurement of the change of phospho-GSK-3β was determined using an AlphaScreen® SureFire® Phospho-GSK […] (Ser9) Kit with the cells being processed as per the manufacturer's instructions using an initial incubation of 2 h/24° C. and a final incubation of 16 h/24° C.
The fluorescence was measured on an Enspire plate reader. […] Representative data is presented in Table 12 using the following ranges: A<50%, B 50-<100%, C 100-<150%, D>150%.
(Bead proximity is the source of the signal in Alpha formats.)
For the compound `COc1ccc(Cl)cc1C(=O)N/N=C1\CCCc2cccnc21` [Compound 17], the “GSK-Zn (signal as % of the positive standard PBT2+ZnCl2)” value is “A (A<50%)”. For the compound `COc1cccc(C(=O)N/N=C(\C)c2cccc(C)n2)c1` [Compound 64], the “GSK-Zn (signal as % of the positive standard PBT2+ZnCl2)” value was “B (B 50-<100%)”. The value for `C/C(=N\NC(=O)c1snnc1C)c1cc(C)ccn1` [Compound 73] was “C (C 100-<150%)”; that for `COc1ccc(C(=O)N/N=C2/c3ncccc3CCC2(C)C)cc1OC` [Compound 26] was “A (A<50%)”; that for `Cc1cccc(C(=O)N/N=C\c2cn3ccccc3n2)c1` [Compound 121] was “A (A<50%)”. The value for `CC/C(=N\NC(=O)c1cccc(OC)c1)c1ncccn1` [Compound 45] was “C (C 100-<150%)”. With `CC/C(=N\NC(=O)c1snnc1C)c1ncccn1` [Compound 43, (E)-4-Methyl-N′-(1-(pyrimidin-2-yl)propylidene)-1,2,3-thiadiazole-5-carbohydrazide], the “GSK-Zn (signal as % of the positive standard PBT2+ZnCl2)” value is “C (C 100-<150%)”. The entry for `Cc1cccc(C(=O)N/N=C(/c2ncccn2)C(C)C)c1` [Compound 51] is “B (B 50-<100%)”; for `O=C(N/N=C/c1nccs1)c1cc(Cl)ccc1O` [Compound 109] it is “B (B 50-<100%)”; for `C/C(=N\NC(=O)c1cccc(C)c1O)c1nc2ccccc2s1` [Compound 105] it is “B (B 50-<100%)”.

For the compound `Cc1cccc(C(=O)N/N=C/c2nccs2)c1O` [Compound 119], the “GSK-Zn (signal as % of the positive standard PBT2+ZnCl2)” value is on record as “A (A<50%)”. Regarding `O=C(N/N=C/c1nc2ccccc2s1)c1cc(Cl)ccc1O` [Compound 115], the “GSK-Zn (signal as % of the positive standard PBT2+ZnCl2)” value is reported as “A (A<50%)”. Consider `COc1cc(C(=O)N/N=C(\C)c2ccc3ccccc3n2)ccc1O` [Compound 87], for which the “GSK-Zn (signal as % of the positive standard PBT2+ZnCl2)” value is “C (C 100-<150%)”.

On to `C/C(=N\NC(=O)c1ccccc1O)c1nc(C)cs1` [Compound 94], for which the “GSK-Zn (signal as % of the positive standard PBT2+ZnCl2)” value is “C (C 100-<150%)”. `Cc1cccc(C(=NNC(=O)c2cccc(C)c2O)c2cccc(C)n2)n1` [Compound 129]: the “GSK-Zn (signal as % of the positive standard PBT2+ZnCl2)” value is “C (C 100-<150%)”.

`CC/C(=N\NC(=O)c1cccc(C)c1O)c1ncccn1` [Compound 46]: the “GSK-Zn (signal as % of the positive standard PBT2+ZnCl2)” value is “C (C 100-<150%)”. The value for `Cc1cccc(C(=O)N/N=C\c2nc(C)c(C)s2)c1` [Compound 106] was “A (A<50%)”. The entry for `C/C(=N\NC(=O)c1cccc(C)c1O)c1cccc(C)n1` [Compound 65] is “B (B 50-<100%)”.

Take `C/C(=N\NC(=O)c1ccccc1O)c1ccc2ccccc2n1` [Compound 76]: the “GSK-Zn (signal as % of the positive standard PBT2+ZnCl2)” value is “C (C 100-<150%)”.

`COc1cccc(C(=O)N/N=C(\C)c2ccc3ccccc3n2)c1` [Compound 78]: the “GSK-Zn (signal as % of the positive standard PBT2+ZnCl2)” value is “C (C 100-<150%)”.

On to `COc1ccc(C(=O)N/N=C(\C)c2ccc3ccccc3n2)cc1OC` [Compound 77], for which the “GSK-Zn (signal as % of the positive standard PBT2+ZnCl2)” value is “C (C 100-<150%)”.

Regarding `O=C(N/N=C1\CCCc2cccnc21)c1cccc(Cl)c1` [Compound 16], the “GSK-Zn (signal as % of the positive standard PBT2+ZnCl2)” value is recorded as “A (A<50%)”.

`O=C(N/N=C1\CCCc2cccnc21)c1ccccc1O` [Compound 12, (E)-N′-(6,7-dihydroquinolin-8(5H)-ylidene)-2-hydroxybenzohydrazide]: the “GSK-Zn (signal as % of the positive standard PBT2+ZnCl2)” value is listed as “B (B 50-<100%)”. With `C/C(=N\NC(=O)c1ccccc1C)c1cc(C)ccn1` [Compound 74], the “GSK-Zn (signal as % of the positive standard PBT2+ZnCl2)” value is “B (B 50-<100%)”. The entry for `C/C(=N\NC(=O)c1cc2ccccc2s1)c1ccccn1` [Compound 146, (E)-N′-(1-(Pyridin-2-yl)ethylidene)benzo[b]thiophene-2-carbohydrazide] is “C (C 100-<150%)”; for `Cl.O=C(N/N=C1\CCCc2cccnc21)c1ccccc1OCCN1CCCC1` [Compound 41, (E)-N′-(6,7-Dihydroquinolin-8(5H)-ylidene)-2-(2-(pyrrolidin-1-yl)ethoxy)benzohydrazide hydrochloride] it is “A (A<50%)”. The entry for `O=C(N/N=C1\CCCc2cccnc21)c1cc(Cl)ccc1O` [Compound 11] is “C (C 100-<150%)”.

In the case of `C/C(=N\NC(=O)c1cc2ccccc2s1)c1cccc(C)n1` [Compound 75], the “GSK-Zn (signal as % of the positive standard PBT2+ZnCl2)” value is on record as “C (C 100-<150%)”. The value for `Cc1cccc(C(=NNC(=O)c2cc(Cl)ccc2O)c2cccc(C)n2)n1` [Compound 128] was “D (D>150%)”; that for `C/C(=N\NC(=O)c1snnc1C)c1nc(C)cs1` [Compound 100, (E)-4-Methyl-N′-(1-(4-methylthiazol-2-yl)ethylidene)-1,2,3-thiadiazole-5-carbohydrazide] was “C (C 100-<150%)”.

As to `C/C(=N\NC(=O)c1ccccc1Cl)c1cccc(C)n1` [Compound 67], the “GSK-Zn (signal as % of the positive standard PBT2+ZnCl2)” value is reported as “C (C 100-<150%)”.

Consider `CCOc1cccc(C(=O)NN=C(c2cccc(C)n2)c2cccc(C)n2)c1` [Compound 132], for which the “GSK-Zn (signal as % of the positive standard PBT2+ZnCl2)” value is listed as “C (C 100-<150%)”. `C/C(=N\NC(=O)c1ccccc1O)c1nc2ccccc2s1` [Compound 104]: the “GSK-Zn (signal as % of the positive standard PBT2+ZnCl2)” value is listed as “D (D>150%)”. The entry for `Cc1cccc(C(=O)NN=C(c2cccc(C)n2)c2cccc(C)n2)c1` [Compound 133] is “C (C 100-<150%)”; for `C/C(=N\NC(=O)c1cccc(C)c1O)c1ccc2ccccc2n1` [Compound 82] it is “C (C 100-<150%)”; for `Cc1ccccc1C(=O)N/N=C1\CCCc2cccnc21` [Compound 18] it is “B (B 50-<100%)”. `COc1cc(C(=O)N/N=C2\CCCc3cccnc32)ccc1O` [Compound 21]: the “GSK-Zn (signal as % of the positive standard PBT2+ZnCl2)” value is listed as “A (A<50%)”. The entry for `Cc1cccc(C(=NNC(=O)c2ccc(N(C)C)cc2)c2cccc(C)n2)n1` [Compound 123] is “C (C 100-<150%)”; for `Cc1cccc(C(=NNC(=O)c2ccccc2F)c2cccc(C)n2)n1` [Compound 134] it is “B (B 50-<100%)”.

Regarding `C/C(=N\NC(=O)c1cc(Cl)ccc1O)c1ccc2ccccc2n1` [Compound 92], the “GSK-Zn (signal as % of the positive standard PBT2+ZnCl2)” value is recorded as “C (C 100-<150%)”. On to `Cc1cccc(C(=NNC(=O)c2ccccn2)c2cccc(C)n2)n1` [Compound 135], for which the “GSK-Zn (signal as % of the positive standard PBT2+ZnCl2)” value is reported as “B (B 50-<100%)”. The value for `C/C(=N\NC(=O)c1cccc(C)c1O)c1ccc(C)s1` [Compound 103] was “B (B 50-<100%)”. Take `COc1cc(C(=O)NN=C(c2cccc(C)n2)c2cccc(C)n2)ccc1O` [Compound 130, N′-(bis(6-Methylpyridin-2-yl)methylene)-4-hydroxy-3-methoxybenzohydrazide]: the “GSK-Zn (signal as % of the positive standard PBT2+ZnCl2)” value is “A (A<50%)”.

In the case of `C/C(=N\NC(=O)c1cccc(C)c1)c1ccc2ccccc2n1` [Compound 81], the “GSK-Zn (signal as % of the positive standard PBT2+ZnCl2)” value is listed as “C (C 100-<150%)”.

In the case of `CC/C(=N\NC(=O)c1cccc(C)c1)c1ncccn1` [Compound 44], the “GSK-Zn (signal as % of the positive standard PBT2+ZnCl2)” value is on record as “B (B 50-<100%)”.

On to `O=C(N/N=C1\CCCc2cccnc21)c1cc2ccccc2s1` [Compound 24], for which the “GSK-Zn (signal as % of the positive standard PBT2+ZnCl2)” value is “A (A<50%)”. The value for `O=C(N/N=C1\CCCc2cccnc21)c1cc2c(s1)-c1ccccc1OC2` [Compound 25] was “B (B 50-<100%)”. The value for `O=C(N/N=C1\CCCc2cccnc21)c1ccc(C(F)(F)F)cc1` [Compound 20] was “A (A<50%)”. The value for `COc1ccc(C(=O)NN=C(c2cccc(C)n2)c2cccc(C)n2)cc1OC` [Compound 126] was “C (C 100-<150%)”. With `C/C(=N\NC(=O)c1cc(Cl)ccc1O)c1nc(C)cs1` [Compound 95], the “GSK-Zn (signal as % of the positive standard PBT2+ZnCl2)” value is given as “C (C 100-<150%)”. `C/C(=N\NC(=O)c1cc2ccccc2s1)c1cc(C)ccn1` [Compound 72]: the “GSK-Zn (signal as % of the positive standard PBT2+ZnCl2)” value was “C (C 100-<150%)”.

Turning to `COc1ccc(C(=O)N/N=C2\CCc3cccnc32)cc1OC` [Compound 38, (E)-N′-(5H-Cyclopenta[b]pyridin-7(6H)-ylidene)-3,4-dimethoxybenzohydrazide], the “GSK-Zn (signal as % of the positive standard PBT2+ZnCl2)” value is listed as “A (A<50%)”. The entry for `COc1cccc(C(=O)NN=C(c2cccc(C)n2)c2cccc(C)n2)c1` [Compound 131] is “B (B 50-<100%)”.
